Assay results as given in patent US7282340B2, “Methods for identifying an analog that promotes nerve regeneration” (Oregon Health Sciences University, priority 1997, dated 2007).
“And” between values parts separate entries of the source, which are not always exact repeats. Identical values can stand only once. Marks after values point to notes of the source that are not given here.

Tests used:
rat sciatic nerve [1] = settings: cited from earlier work
rat sciatic nerve [2] = assay: Functional recovery after sciatic nerve crush; assay type: in vivo, Sprague-Dawley rats
Method: (§1) Animals and surgical procedure. Ten six-week-old Sprague-Dawley rats were anesthetized with 2% halothane, the right sciatic nerve exposed, and the nerve crushed twice (for a total of 30 sec using a No. 7 Dumont jeweler's forceps) at the level of the hip. The crush site was marked by tying a sterile 9-0 suture through the perineurial sheath.
(§2) Preparation and administration of V-10,367. V-10,367-HCl (molecular weight, 639.18) was dissolved in vehicle comprising 40% propylene glycol:10% ethanol:50% water. Fresh solutions were prepared at the time of each injection. Three rats received subcutaneous injections (200 mg/kg) every 12 hours (beginning immediately after the nerve crush; totaling 400 mg/kg/day) in the back of the neck using a 25 g needle. Control animals (n=3) received injections every 12 hours of vehicle only. An additional control group (n=3) received daily injections of saline. Animals were weighed daily and the weights plotted over the 18-day period of the study.
Two separate additional studies were performed. In the first study, three axotomized rats received a single daily subcutaneous injection (200 mg/kg) as above. In the second study, V-10,367 was delivered as to axotomized rats as a continuous infusion. Osmotic pumps (Alza, Palo Alto, Calif.) model 2ML2 filled with V-10,367-HCl (200 mg/ml) or vehicle (two per group) were implanted under the skin on the left side of the animal.
Behavioral assessment. Functional recovery was assessed in FK506-treated animals used for morphological study only. Animals were examined blindly by two investigators daily until the day of perfusion (18 days). […] To obtain records during walking, the hind feet were marked with tempera paint and the animals allowed to freely walk across a sheet of paper between 14-18 days. Toe spread during walking was defined as the distance between the first and fifth digits, measured to the nearest 0.5 mm; three foot prints were analyzed from each animal. This analysis represents a reliable and reproducible index of functional recovery which, unlike the sciatic nerve function index, is not influenced by how fast the animal walks (Walker et al., Restor. Neurol. Neurosci. 6:189-193, 1994).

soleus nerve = assay: Electron microscopic morphometry of axonal areas in soleus nerve after sciatic nerve crush; assay type: in vivo, Sprague-Dawley rats
Method: as §1
Preparation and administration of V-10,367. V-10,367-HCl (molecular weight, 639.18) was dissolved in vehicle comprising 40% propylene glycol:10% ethanol:50% water. Fresh solutions were prepared at the time of each injection. Three rats received subcutaneous injections (200 mg/kg) every 12 hours (beginning immediately after the nerve crush; totaling 400 mg/kg/day) in the back of the neck using a 25 g needle. Control animals (n=3) received injections every 12 hours of vehicle only. An additional control group (n=3) received daily injections of saline. […]
Electron microscopic analysis of axons. […] Axonal areas of both myelinated and unmyelinated fibers were determined by tracing the axolemma using a Houston Instrument HI-PAD digitizing tablet connected to an IBM XT computer with appropriate software (Bioquant IV, R&M biometrics, Nashville, Tenn.). […] For each group (i.e., 400 and 200 mg/kg/day V-10,367-treated and vehicle-treated), mean values and standard areas were calculated for the whole population of axons. […]

FKBP-12 = FKBP-12 (Homo sapiens, UniProt P62942); assay: FKBP-12 inhibition; assay type: biochemical
Source text: Assays for inhibition of FKBP-12 rotamase activity are described in Harding et al. (Nature 341:758-760, 1989), Siekierka et al., Nature 341:755-757, 1989, and U.S. Pat. No. 5,654,332, for example. Chymotrypsin is able to cleave p-nitroanilide from the trans form of the artificial substrate N-succinyl-Ala-Ala-Pro-Phe-p-nitroanilide, but not from the cis form. The assays of Harding et al. and Siekierka et al. employ a reaction mixture that includes the cis form of N-succinyl-Ala-Ala-Pro-Phe-p-nitroanilide, FKBP-12, a test compound, and chymotrypsin, and spectrophotometrically measure the release of p-nitroanilide as a result of isomerization of the substrate.

[3] = system: SH-SY5Y human neuroblastoma cells; assay: Neurite outgrowth (neurite length) in NGF-treated SH-SY5Y cells; assay type: cell-based; settings: for Mean neurite length: mean ± SEM
Method: Cell cultures. SH-SY5Y human neuroblastoma cells were maintained in DMEM medium (GIBCO) supplemented with 10% fetal calf serum (SIGMA), 50 IU>mL penicillin, and […] streptomycin (GIBCO) at 37° C. in 7% CO^2. Cells were plated in six-well plates at 1×10^6 cells/well and treated with […] aphidicolin (SIGMA). At five days, cells were washed, treated with nerve growth factor (NGF) (Boehringer Mannheim, Indianapolis, Ind.) at 10 ng/mL (to induce process outgrowth) in the presence or absence of V-10,367 (1, 10, or 100 nM) (Armistead et al., Acta Cryst., D51:522-528, 1995; FIG. 1). Media was changed at 96 hours and replaced with fresh media with or without the compounds (NGF and V-10,367) for an additional 72 hours (total time, 168 hours). All experiments were run in duplicate wells and repeated at least twice for reproducibility.
Light morphometry of neurite lengths. […] Neurite lengths were measured on photographic prints using a Houston Instrument HI-PAD digitizing tablet connected to an IBM XT computer with appropriate software (Bioquant IV, R&M Biometrics, Nashville, Tenn.); only those processes greater than two times the cell body length were measured. Data from identically treated wells were not different and were therefore combined. […] Histograms were compared using a Mann-Whitney U test, which makes no assumptions about the shape of the distribution.

[4] = rat, in vivo, sc, 400 mg/kg/day
Method: as §2

[5] = Single-dose pharmacokinetics in the rat; assay type: in vivo, Sprague-Dawley rat
Method: Pharmacokinetics of V-10,367. To determine the appropriate daily dose of V-10,367 for administration to rats, single-dose pharmacokinetics of V-10,367 were evaluated in the rat following intravenous and subcutaneous dosing. […] Since these concentrations were sufficiently above the 10 nM concentration needed to cause neurite extension in vitro, a subcutaneous dose of 200 mg/kg twice daily was selected for subsequent experiments.

[6] = continuous infusion 18 days via osmotic minipump
[7] = single intravenous dose 17.7 mg/kg
[8] = subcutaneous injection 174 mg/kg

Chain of FKBP-12 (P62942 whole entry, species assumed): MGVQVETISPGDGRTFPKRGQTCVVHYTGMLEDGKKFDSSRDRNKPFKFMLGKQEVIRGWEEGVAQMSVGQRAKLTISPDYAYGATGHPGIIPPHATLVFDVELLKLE

Compound: CC[C@@H]1/C=C(\C)[C@@H](O)[C@H](C)C[C@H](OC)[C@H]2O[C@@](O)(C(=O)C(=O)N3CCCC[C@H]3C(=O)O[C@H](/C(C)=C/[C@@H]3CC[C@@H](O)[C@H](OC)C3)[C@H](C)[C@@H](O)CC1=O)[C@H](C)C[C@@H]2OC [L-685,818, 18-OH, 21-ethyl-FK506]
- Functional recovery (rat sciatic nerve [1]; topical administration to the nerve crush site): accelerate functional recovery

Compound: COc1cc(C(=O)C(=O)N2CCCC[C@H]2C(=O)OC(CCCc2ccccc2)CCCc2cccnc2)cc(OC)c1OC.Cl (some centres unmarked) [V-10,367]
- Toe spread: distance between the first and fifth digits (rat sciatic nerve [2]; axotomized side, n=3, vehicle 11.0±0.58, uninjured side 19.5±0.39): 13.0±0.41 mm
- Functional recovery compared to vehicle-treated controls (rat sciatic nerve [2]; [6]): earlier functional recovery
- Efficacy upon oral (gavage) administration (rat sciatic nerve [2]; oral gavage, rat sciatic nerve crush): effective
- Days until onset of ability to right the foot and move the toes (onset) (rat sciatic nerve [2]; s.c. V-10,367, n=3, mean ± SEM, vehicle 15.3±0.33): 13.7 ± 0.33 days
- Days until ability to walk on hind feet and toes (walking) (rat sciatic nerve [2]; s.c. V-10,367, n=3, mean ± SEM, vehicle 16.3±0.33): 14 ± 0 days
- Increase of mean axonal areas compared to vehicle (soleus nerve; 18 days after axotomy, subcutaneous injections): 50%
- Increase of mean axonal calibers compared to vehicle (soleus nerve; [6]): 40%
- FKBP-12 inhibition (FKBP-12): potent FKBP-12 inhibitor
- Mean neurite length ([3]; 1 nM V-10,367 + NGF 10 ng/mL, 96 h): 110 ± 2.2 μm
- Mean neurite length ([3]; 1 nM V-10,367 + NGF 10 ng/mL, 168 h): 136 ± 5.8*^,Δ μm
- Mean neurite length ([3]; 10 nM V-10,367 + NGF 10 ng/mL, 96 h): 138 ± 9.4 μm
- Mean neurite length ([3]; 10 nM V-10,367 + NGF 10 ng/mL, 168 h): 148 ± 8.6*^,††,Δ μm
- Mean neurite length ([3]; 100 nM V-10,367 + NGF 10 ng/mL, 96 h): 121 ± 6.0 μm
- Mean neurite length ([3]; 100 nM V-10,367 + NGF 10 ng/mL, 168 h): 118 ± 4.2*^,† μm
- Number of processes per cell or branching of cell processes ([3]; 1-100 nM with NGF 10 ng/mL): No change
- Concentration of maximal effect on neurite length ([3]; tested at 1, 10, 100 nM with NGF 10 ng/mL): 10 nM
- Tolerability [4]: well tolerated
- Average blood clearance [5, 7]: 84 mL/min/kg
- Elimination half-life [5, 7]: about 1.3 hours
- Volume of distribution at steady state [5, 7]: 2.76 L/kg
- Average Cmax [5, 8]: 171 ng/mL
- Cmax [5, 8]: 285 nM
- Trough concentrations at 8 hours post-dose ([5]; subcutaneous injection 174 mg/kg, 174 mg/kg): 27-252 ng/mL and 45-420 nM
- Apparent half-life following subcutaneous administration ([5]; subcutaneous vs intravenous): prolonged

Compound: cyclosporin A
- Nerve regeneration in the rat sciatic nerve following a crush injury (rat sciatic nerve [1]; rat, in vivo): does not increase nerve regeneration
